Assay: Emulsion formation with different oil-water ratios (Example 66)
Format: physicochemical
Settings: water-oil ratio 1:2.5, groundnut oil, 3.0 wt % composition
Description: The ability of inventive surface-active compositions to stabilize emulsions in different mass-ratios of vegetable oil and water was investigated. Mixtures of water, vegetable oil and inventive surface-active composition were prepared as per table below, by adding groundnut oil, water, and surface-active composition in the desired mass ratio. The mixtures were heated at 60 C in a homogenizer (stirring for 10 minutes at 800 rpm, then further homogenized at this speed and ambient temperature for 5 min). The visual appearance of each mixture was acknowledged. The mixtures were then treated by centrifugation at 1500 rpm for 5 mi and the visual appearance was again acknowledged.

SMILES: CCCCCCCCCCN(C(C)=O)C1OC[C@@H](O)[C@H](O)[C@H]1O (some centres unmarked) [Example 11 composition, N-decyl N-acetyl xylosylamine]
- Visual interpretation of results, after centrifugation (1500 rpm 5 min): Complete phase-separation
- Visual interpretation of results, before centrifugation (homogenized at 60 C): Emulsion failed to form.

Reference: US20250101338A1, “BIOMASS DERIVED SURFACE-ACTIVE COMPOSITIONS AND PRODUCTS” (Cambridge Glycoscience Ltd, priority 2021, published 2025)
